Paper PMC7285181 (Pharmaceutics, 2020)
Counter-ions that a name gives are not always drawn. Marks after values point to notes of the source that are not given here.

System: compound 48/80-induced systemic anaphylaxis-like reactions in mice
Experiment: Compound 48/80-induced systemic anaphylaxis-like reactions in mice (mortality)
Assay type: in vivo
Settings: n = 8, oral 1 h before i.p. compound 48/80 (8 mg/kg), mortality within 1 h
Method: Five groups each of 8 male albino mice were used in this experiment. Mice were housed 4 per cage and were maintained at room temperature (25 ± 0.5 °C). All experiments were performed in compliance with the guidelines approved by the ethics committee of Faculty of Pharmacy, The British University in Egypt (approval number Ex-1904). The mice in the first group were administered phosphate buffer saline orally (negative control group), while the second group were administered phosphate buffer saline 1 hour prior to an intraperitoneal injection of 8 mg/kg of the mast cell degranulator compound 48/80 which induces systemic anaphylaxis-like reactions in mice (positive control group). […] The mortality was monitored for 1 h after induction of anaphylactic shock. After the mortality test, blood was obtained from the heart of each mouse by cardiac puncture.

CC(C)(C(=O)O)c1ccc(C(O)CCCN2CCC(C(O)(c3ccccc3)c3ccccc3)CC2)cc1 (stereo not shown) [FEX powder, Fexofenadine HCl]
Mortality: 62.5% *
